Consider two molecules from article PMC7016953 (Cells, 2020).

SMILES strings stand for the structures.

The target in assay [1] is T1, TRPC3 (Homo sapiens, UniProt Q13507).
T1 construct: expressed in transfected cells
T1 sequence (Q13507 1-848 isoform Q13507-3): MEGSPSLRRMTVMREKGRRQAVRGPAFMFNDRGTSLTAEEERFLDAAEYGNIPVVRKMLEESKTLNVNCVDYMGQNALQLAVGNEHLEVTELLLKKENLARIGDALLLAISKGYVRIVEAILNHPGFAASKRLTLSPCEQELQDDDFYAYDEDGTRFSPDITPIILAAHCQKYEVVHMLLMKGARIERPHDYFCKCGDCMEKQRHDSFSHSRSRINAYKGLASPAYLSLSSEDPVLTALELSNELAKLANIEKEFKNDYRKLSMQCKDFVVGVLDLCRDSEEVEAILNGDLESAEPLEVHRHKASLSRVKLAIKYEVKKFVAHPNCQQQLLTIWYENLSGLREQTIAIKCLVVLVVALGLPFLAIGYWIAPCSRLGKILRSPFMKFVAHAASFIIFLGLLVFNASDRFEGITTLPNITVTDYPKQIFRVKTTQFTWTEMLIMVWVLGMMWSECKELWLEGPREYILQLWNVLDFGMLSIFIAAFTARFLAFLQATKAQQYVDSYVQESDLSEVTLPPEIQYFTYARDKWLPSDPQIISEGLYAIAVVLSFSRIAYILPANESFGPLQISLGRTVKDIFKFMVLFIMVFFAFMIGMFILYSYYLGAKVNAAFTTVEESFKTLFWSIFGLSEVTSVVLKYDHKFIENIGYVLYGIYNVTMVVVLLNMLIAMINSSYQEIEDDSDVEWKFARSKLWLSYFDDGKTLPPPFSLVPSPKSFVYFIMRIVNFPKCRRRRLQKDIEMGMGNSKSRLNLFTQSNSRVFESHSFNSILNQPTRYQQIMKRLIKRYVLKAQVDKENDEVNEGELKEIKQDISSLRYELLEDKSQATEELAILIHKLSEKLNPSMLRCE
Put plainly: Fluo-4 Ca2+ influx assay in HEK TRPC3-YFP cell suspensions. It counts as cell-based.

The next assay has as its system T2, TRPC7.
T2 construct: expressed in transfected cells
Put plainly: Whole-cell patch-clamp recordings in HEK TRPC7-YFP cells. It counts as cell-based, human. To be noted: 50 µM OAG, subsequent exposure. How it is done:
(§1) The recordings of TRPC3, TRPC6, or TRPC7 membrane currents in HEK293 or PC12 cells were realized by using a Multiclamp 700B amplifier with a Digidata 1440A digitizer controlled by the PClamp 10 software (all Molecular Devices, Sunnyvale, CA, U.S.A.). Recordings were obtained at room temperature either in the whole-cell or in an outside-out configuration as indicated. Cells were seeded as described above, but at lower density, mounted in a chamber (Warner Instruments, Hamden, CT; U.S.A.), placed onto the stage of an inverted microscope, and perfused with required solution. The standard extracellular solution contained 140 mM NaCl, 5 mM CsCl, 2 mM MgCl2, 1 mM CaCl2, 10 mM HEPES, and 0.035% BSA adjusted to pH 7.4 with NaOH. The composition of standard intracellular solution was 140 mM CsCl, 1 mM MgCl2, 5 mM EGTA, and 10 mM HEPES adjusted to pH 7.25 with CsOH; the osmolarity was 295 mOsm l^−1. In outside-out measurements, the pipette solution contained 5 mM EGTA and 1.1 mM CaCl2 to achieve a calculated free Ca^2+ concentration of 100 nM.
(§2) Patch pipettes were pulled from borosilicate glass capillaries BG150F-8P (Science Products, Hofheim, Germany) with a PIP6 pipette puller (HEKA Elektronik, Lambrecht, Germany). […] In all whole-cell measurements, the series resistance was lower than 13 MΩ, and compensated by 70%. […]
A general note: Patch clamp records ionic current or voltage across a cell membrane.

Assay [2] has as its system T3, TRPC3.
T3 construct: expressed in transfected cells
Put plainly: Microfluorometric single-cell [Ca2+]i analysis, fura-2-loaded HEK cells stably expressing TRPC3. Format: cell-based, human. To be noted: 100 µM OAG applied sequentially; also in HEK cells expressing mouse TRPC3. Here is the method: (§3) The microfluorometric single-cell [Ca^2+]i analysis was performed on an inverted epifluorescence microscope (Carl Zeiss, Jena, Germany) and calibrated as described. Cells were grown on 25 mm coverslips and loaded with 4 µM fura-2/AM (AAT Bioquest, Sunnyvale, CA, U.S.A.) in HBS containing 0.2% BSA for 30 min at 37 °C. After gently rinsing the coverslips with HBS, coverslips were mounted in a bath chamber and superfused with HBS containing 0.035% BSA.
Figure 2 Microfluorometric single-cell analysis of artemisinin-induced increases in [Ca^2+]i in fura-2-loaded HEK cells stably expressing TRPC3 (A), TRPC6 (B), or TRPC7 (C). […] Experiments were performed either in standard bath solution, containing 1 mM Ca^2+ (black lines and bars), or in a nominally Ca^2+-free HBS buffer, supplemented with 200 µM EGTA (grey lines and bars). Time courses of averaged responses (left), and statistical analysis of 6–11 independent imaging experiments with means and S.D. (right) are shown. Significant differences (p < 0.05, Student´s t-test with paired data: #, with unpaired data: *) are marked for the indicated comparisons; n.s.: difference is statistically not significant.

A further assay relates to T4, TRPC6.
T4 construct: expressed in transfected cells
The experiment in a line: Whole-cell patch-clamp recordings in HEK TRPC6-YFP cells. Format: cell-based, human. To be noted: 50 µM OAG, subsequent exposure. How it is done: as §1, §2

Assay [3] has as its system PC12 cells (native TRPC3 channel complexes). Put plainly: [Ca2+]i analysis in fura-2-loaded PC12 cells. To be noted: artemisinin 50 or 100 µM; 6–12 experiments for each compound. Format: cell-based, rat. How it is done: Human embryonic kidney 293 (HEK293) cells were stably transfected with expression plasmids that encode hTRPC3-YFP, hTRPC6-YFP, hTRPC7-YFP, mTRPC4ß-YFP, rTRPV1-CFP, rTRPV2-YFP, rTRPV3-YFP, mTRPV4-YFP, or hTRPM2 as previously described. Cell lines were cultured in Earle’s minimum essential medium (MEM; Sigma, Munich, Germany), supplemented with 10% fetal calf serum (Gibco Thermo Fisher Scientific, Darmstadt, Germany), 2 mM L-glutamine, and required concentrations of geneticin in a range of 0.4–1 mg/mL. A HEK293mTRPC5-YFP cell line was maintained and induced as described before. The HEK293mTRPM3α2 cells (expressing the Ca^2+-permeable main variant of mouse TRPM3) were kindly provided by Johannes Oberwinkler (Marburg, Germany), the HEK293hTRPA1 cells that constitutively overexpress the human TRPA1 were from Dr. Natalie Tigue and Dr. Steve Moore (GlaxoSmithKline, Harlow, UK). With the exception of mTRPC5-YFP, all cell lines constitutively overexpress the respective TRP channel under the control of a cytomegalovirus (CMV) promoter. A HEK cell line stably expressing the human protein kinase C (PKC) ε C-terminally tagged with YFP [13] was generated and maintained in the same medium as HEKTRPC3-YFP cells. PC12 cells were cultured in RPMI-1640 (Sigma, Munich, Germany) with 10% fetal calf serum, 2 mM L-glutamine, 100 U/mL penicillin, and 0.1 mg/mL streptomycin. For electrophysiological and single cell [Ca^2+]i imaging experiments, PC12 cells were plated onto 25 mm poly-L-lysine-coated glass coverslips and measured 24–48 h after seeding. All cells were maintained at 37 °C in a 5% CO2-aerated, humidified atmosphere.
as §3
Figure 7 Expression of TRPC3 and functional responses to TRPC activators in PC12 rat pheochromocytoma cells. (A) Immunofluorescence analysis of TRPC3 (green channel) and tyrosine hydroxylase (TH; red channel) expression in PC12 cells. Nuclei were counterstained with DAPI (blue channel). Bars: 20 µm scale. Time course of the [Ca^2+]i (B) and averaged basal and peak [Ca^2+]i values (C) were recorded by microfluorometric analysis in fura-2-loaded PC12 cells grown on glass coverslips. […] Data represent averages (B) or means and S.D. (C) of 6–12 imaging experiments for each compound. Significant increases compared to the respective basal values are indicated (#: p < 0.05; Student´s t-test for paired data).

In assay [4] the test system is T5, heteromeric TRPC3:TRPC6 channel complexes.
T5 construct: expressed in transfected cells; host or cells: HEK293, stably co-transfected
The experiment in a line: Fluo-4 Ca2+ influx assay in HEK293 cells co-expressing TRPC3 and TRPC6. It counts as cell-based. To be noted: fluo-4 concentration response analysis. Here is the method: (§4) All fluorometric Ca^2+ assays were done in (4-(2-hydroxyethyl)-1-piperazineethanesulfonic acid) (HEPES)-buffered saline (HBS), containing 132 mM NaCl, 6 mM KCl, 1 mM MgCl2, 1 mM CaCl2, 5.5 mM D-glucose, 10 mM HEPES, and 0.035% bovine serum albumin (BSA) adjusted to pH 7.4 with NaOH. For measurements in Ca^2+-free bath solutions, a modified HBS without CaCl2 was supplemented with 200 µM ethylene glycol-bis(β-aminoethyl ether)-N,N,N′,N′-tetraacetic acid (EGTA).
(§5) The primary compound screen and the generation of concentration response curves in HEK293 cells or in PC12 cells were performed by using a custom-made fluorescence plate imager built into a robotic liquid handling station equipped with a 96-tip multichannel head (Freedom Evo 150, Tecan, Männedorf, Switzerland) as described previously. To this end, trypsinized cell suspensions were loaded with 4 µM fluo-4/AM (Invitrogen, Thermo Fisher Scientific, Waltham, MA, U.S.A.) in cell culture medium for 30 min at 37 °C. After brief centrifugation, cells were resuspended in HBS and dispensed into black pigmented, clear-bottom 384-well plates (Greiner µClear, Frickenhausen, Germany). Plates were mounted on the imager, and fluorescence signals were recorded with a cooled Zyla 5.5 camera (Andor, Belfast, UK) through a 515 nm long pass filter. The image acquisition was controlled by the µManager software (http://micro-manager.org), and excitation with a LED array (470 nm) was synchronized by the camera trigger output. After baseline recording for about 60 s, the compound libraries or serial dilutions of activators or inhibitors were added to the cells by the liquid handling device. When inhibitory potencies were evaluated, a second pipetting step with the respective reference agonist was performed. Fluorescence intensities were calculated from image stacks for each well with ImageJ (National Institutes of Health, Bethesda, MD, U.S.A.), corrected for background signals, and normalized to the initial intensities (F/F0). […]

Another assay has as its system T6, hTRPC6-YFP.
T6 construct: expressed in transfected cells
Put plainly: Fluo-4 Ca2+ influx assay in HEK293 cells stably expressing TRPC6. It counts as cell-based, human.

The test system of a further assay is T7, hTRPC7-YFP.
T7 construct: expressed in transfected cells
The experiment in a line: Fluo-4 Ca2+ influx assay in HEK293 cells stably expressing TRPC7. To be noted: fluo-4 concentration response analysis. Format: cell-based, human.

For a further assay, the system named is parental HEK293 cells. Put plainly: [Ca2+]i response in un-transfected parental HEK293 cells. Format: cell-based, human. To be noted: concentrations up to 50 µM. Here is the method:
as §4, §5

Take `CCCCCCCC/C=C\CCCCCCCC(=O)OC[C@H](CO)OC(C)=O` [OAG, 1-oleoyl-2-acetyl-sn-glycerol]: the “EC50 of OAG in the presence of artemisinin” value at TRPC3 [1] (30 or 100 µM artemisinin co-applied) is “shifted to lower concentrations”. The “current densities in TRPC7-expressing HEK cells” value in the assay on TRPC7 is “caused increases in current densities”. In addition, the “further increase in [Ca2+]i after challenge with maximally effective artemisinin” value with TRPC3 [2] is “failed to induce a further increase in [Ca^2+]i”. The “current densities in TRPC6-expressing HEK cells” value in the assay on TRPC6 is “caused increases in current densities”. For the same molecule, the “[Ca2+]i in fura 2-loaded PC12 cells” value in assay [3] is “significant increases in [Ca^2+]i”.
As to `C[C@H]1[C@@H](O)O[C@@H]2O[C@@]3(C)CC[C@H]4[C@H](C)CC[C@@H]1[C@@]24OO3` [artenimol], on TRPC3 [1] (20 µM, acute addition), the “fluorescence signal of the Ca2+ indicator in primary screen” value is “immediate and transient increase in the fluorescence signal”. Also, the “TRPC3 activation in concentration response analysis” value at TRPC3 [1] (fluo-4, up to 200 µM, compared with solvent (DMSO)) is listed as “did not reach saturation”. The “response of cells stably transfected with both TRPC3 and TRPC6” value in assay [4] is on record as “in a very similar fashion as HEKTRPC3-YFP cells”. The “effect on TRPC6” value with hTRPC6-YFP (fluo-4 concentration response analysis) is reported as “marked preference to activate TRPC3, but not the closely related TRPC6 channel”. Also, the “signal in counterscreen with TRPC6-expressing cells” value with hTRPC6-YFP (primary screen, 20 µM) is on record as “no signals”. In the assay on hTRPC7-YFP, the “effect on TRPC7” value is “remained largely unaffected”. The “response of un-transfected parental HEK293 cells” value in the assay with parental HEK293 cells is reported as “no response”.
